Experimental data published in US8119806B2, “Cicletanine derivatives” (Merck Sharp & Dohme Corp., priority 2008, dated 2012).

These molecules were tested on isolated rabbit thoracic aorta preparations (assay: Vessel relaxation in isolated rabbit thoracic aorta rings precontracted with noradrenaline). Settings: Oryctolagus cuniculus, read-out: Vessel Relaxation Data ED50.

Row | Compound | EC50 [µM]
1 | Cc1ncc2c(c1O)CO[C@H]2c1ccc(Cl)cc1 | 35.8
2 | Cc1ncc2c(c1OC(=O)C1C[C@H](O[N+](=O)[O-])[C@H](O[N+](=O)[O-])C1)CO[C@H]2c1ccc(Cl)cc1 (stereo partly drawn) | 6.29
3 | CO[C@H]1C[C@H](C(=O)O)C[C@@H]1O[N+](=O)[O-] | 126

Other lines, results leading:

Row | EC50 [µM] | Compound
4 | 18.8 | CO[C@H]1CC(C(=O)Oc2c(C)ncc3c2CO[C@H]3c2ccc(Cl)cc2)C[C@@H]1O[N+](=O)[O-] (stereo partly drawn)
5 | 0.237 | CC(=O)N[C@H](C(=O)O)C(C)(C)SN=O (racemic) [SNAP, S-nitroso-N-acetylpenicillamine, reference compound]

Same assay, conditions: Oryctolagus cuniculus, read-out: vessel relaxation EC50

Row | Compound | EC50 [µM]
6 | Cc1ncc2c(c1OC(=O)OC[C@H]1C[C@H](O[N+](=O)[O-])[C@H](O[N+](=O)[O-])C1)COC2c1ccc(Cl)cc1 (stereo partly drawn) [Example 39] | < 50
7 | Cc1ncc2c(c1OC(=O)OC[C@@H]1C[C@H](O[N+](=O)[O-])[C@H](O[N+](=O)[O-])C1)COC2c1ccc(Cl)cc1 (stereo partly drawn) [Example 40] | < 50
8 | Cc1ncc2c(c1OC(=O)O[C@H]1CO[C@H]3[C@@H]1OC[C@H]3O[N+](=O)[O-])COC2c1ccc(Cl)cc1 (stereo partly drawn) [Example 45] | < 50
9 | CO[C@H]1C[C@@H](C(=O)Oc2c(C)ncc3c2CO[C@H]3c2ccc(Cl)cc2)C[C@@H]1O[N+](=O)[O-] [Example 60, (3S)-3-(4-chlorophenyl)-6-methyl-1,3-dihydrofuro[3,4-c]pyridin-7-yl(1R,3S,4S)-3-methoxy-4-(nitrooxy)cyclopentanecarboxylate] | < 50
